The values that follow come from patent US20240091230A1, “USE OF KRAS G12C INHIBITOR IN TREATING CANCERS” (AMGEN INC., priority 2021, published 2024).

The subject of this assay is locally advanced or metastatic KRAS G12C mutant NSCLC. Put plainly: CodeBreaK 100 phase 2 portion, sotorasib monotherapy 960 mg QD (NCT03600883). Particulars: among 46 confirmed responders; cutoff Sep. 1, 2020. Type of assay: in vivo, human.

Method: As discussed above, in phase 2 of the CodeBreaK 100 Trial (ClinicalTrials.gov identifier: NCT03600883) subjects with locally advanced or metastatic KRAS G12C mutant NSCLC were treated with the compound of Formula I as monotherapy at 960 mg QD.
• Subject has provided informed consent prior to initiation of any study specific activities/procedures. • Men or women: 18 years of age or older. • Pathologically documented, locally-advanced or metastatic malignancy with KRAS G1 2C 10 mutation identified through molecular testing. For phase 2. the mutation was confirmed by central testing prior to enrollment. • Subjects must have progressed after receiving anti-PD-1 or anti-PD-L1 immunotherapy (unless contraindicated) AND/OR platinum-based combination chemotherapy AND targeted therapy if actionable oncogenic driver mutations were identified (i.e., EGFR, ALK, and ROS1). Subjects must have received no more than 3 prior lines of therapy. The following guidance was used: • Adjuvant therapy was counted as a line of therapy if the subject progressed on or within 6 months of adjuvant therapy administration. • In locally advanced and unresectable NSCLC, disease progression on or within six months of end of prior curatively intended multimodal therapy was counted as a line of therapy.
• Active brain metastases from non-brain tumors.
Samples for biomarker analysis, e.g., to evaluate potential biomarkers that may correlate with treatment response, were collected.
For subjects with NSCLC an archival tumor sample (formalin fixed, paraffin embedded (FFPE) sample, collected within 5 years of enrollment) or pretreatment tumor biopsy (core needle or fine needle aspirates or excisional FFPE sample) was submitted prior to enrollment for central laboratory testing as well as subsequent exploratory biomarker analyses. […]
KRAS G12C mutation testing was conducted using a therascreen® KRAS RGQ PCR Kit (Qiagen). […] The mutations detected are: G12A, G12D, G12R, G12C, G12S, G12V, and G13D.
PD-L1 testing was conducted at the central labs using the Dako PharmDx 22C3 immunohistochemistry FDA-approved kit according to the instructions for use. […] All slides were reviewed and scored by a board-certified pathologist trained to score the PD-L1 IHC 22C3 pharrnDx assay.
STK11, KEAP1 , and TP53 mutation testing was conducted using the Resolution Bioscience Resolution ctDx Lung™ assay that included 24 genes (including those actionable in NSCLC). […] STK11/KEAP1/TP53 co-mutation analysis determined mutational status from baseline tissue and/or plasma samples, and mutations include nonsense, missense, frameshift, or splice site mutations and insertion/deletions predicted to be loss-of-function, and excluded variants of unknown significance. […]

On to `C=CC(=O)N1CCN(c2nc(=O)n(-c3c(C)ccnc3C(C)C)c3nc(-c4c(O)cccc4F)c(F)cc23)[C@@H](C)C1` [sotorasib, 6-fluoro-7-(2-fluoro-6-hydroxyphenyl)-(1M)-1-[4-methyl-2-(propan-2-yl)pyridin-3--yl]-4-[(2S)-2-methyl-4-(prop-2-enoyl)piperazin-1-yl]pyrido[2,3-d]pyrimidin-2(1H)-one], for which the “Duration of response (KM) - 25th percentile” value came out at 6.8 months, the “Duration of response (KM) - 75th percentile” value is reported as 8.4 months, the “Duration of response (KM) - Max (+ for censored)” value came to 8.4 months and the “Duration of response (KM) - Median” value is reported as 8.4 months.
